We go through four compounds from ChEMBL document CHEMBL1926524, “Cyclolobatriene, a novel prenylated germacrene diterpene, from the soft coral Lobophytum pauciflorum” (Bioorg Med Chem, 2012).

The test system of this assay is A-431. Description: Cytotoxicity against human A431 cells after 4 days by coulter counting. The class given is functional, cell-based. The conditions noted are these: A-431, 96 h.

The term IC50 denotes the concentration at which inhibition is half-maximal. The low end stands for greater potency in that assay, the high end for weaker potency in that assay. The compound `C/C1=C\C[C@@H](C2=CC[C@H](C(C)(C)O)OC2)CC/C(C)=C/CC1` [CYCLOLOBATRIENE] returned an IC50 of 0.64 µM.

In turn, `C/C1=C\C[C@@H](/C(C)=C/C=C/C(C)(C)O)CC/C(C)=C/CC1` [EUNICOL] displayed an IC50 of 0.35 µM.

Regarding `C=C[C@@]1(C)CC[C@H](/C(C)=C/C=C/C(C)(C)O)C[C@@H]1C(=C)C` [FUSCOL], the IC50 stood at 0.52 µM.

On to `C=C[C@@]1(C)CC[C@H](C2=CC[C@H](C(C)(C)O)OC2)C[C@@H]1C(=C)C` [LOBATRIENE], for which the IC50 was 0.41 µM.
